{"source": "patent US8293243B2", "about": "(priority 2004, dated 2012)", "origin": "cited, not measured here", "conditions": "in vivo; cited from earlier work", "note": "*1 amine or outer side, *2 acyl side, *3 side chain or, on linkers, in order; H or OH if unused. Where a SMILES comes first, the peptide text is derived from it. Bridges are numbered along the chain shown (N, C = ends). Roman numbers before positions name the chains, in order. [ ]: non-standard residue; d: D form. Actinocin(9to1) = Cc1c2oc3c(C)ccc(C(=O)[*:1])c3nc-2c(C(=O)[*:2])c(N)c1=O; NMeV = CN[C@H](C(=O)O)C(C)C; Sar = CNCC(=O)O"}
{"smiles": "Cc1c2oc3c(C)ccc(C(=O)N[C@@H]4C(=O)N[C@H](C(C)C)C(=O)N5CCC[C@H]5C(=O)N(C)CC(=O)N(C)[C@@H](C(C)C)C(=O)O[C@@H]4C)c3nc-2c(C(=O)N[C@@H]2C(=O)N[C@H](C(C)C)C(=O)N3CCC[C@H]3C(=O)N(C)CC(=O)N(C)[C@@H](C(C)C)C(=O)O[C@@H]2C)c(N)c1=O", "note": "[Actinomycin D] (I: T[dV]P[Sar][NMeV] / II: T[dV]P[Sar][NMeV]; ester I:1-I:C, II:1-II:C; linker I:N-II:N via Actinocin(9to1))", "values": [{"measurement": "passage of the blood-brain barrier", "result": "does not pass the blood-brain barrier"}]}
